Data published in PubChem BioAssay (NCI).
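Dose response: 5 concentrations. Exposure: 48 h. Format: 96-well plates. Endpoint: linear interpolation; highest concentration if not reached. Definition used: TGI = concentration required for complete inhibition of growth.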

How the values were obtained:
Experiment in all cases: inhibition of tumour cell growth, NCI panel, 48 h
NCI-H23 lung = system: NCI-H23 lung
DU-145 prostate = system: DU-145 prostate
SK-MEL-28 melanoma = system: SK-MEL-28 melanoma
ACHN renal = system: ACHN renal
HCT-116 colon = system: HCT-116 colon
EKVX NSCLC = system: EKVX NSCLC
SW-620 colon = system: SW-620 colon
SNB-19 CNS = system: SNB-19 CNS
HOP-62 NSCLC = system: HOP-62 NSCLC
A498 renal = system: A498 renal
HOP-92 NSCLC = system: HOP-92 NSCLC
K-562 leukemia = system: K-562 leukemia
NCI-H522 lung = system: NCI-H522 lung
RPMI-8226 leukemia = system: RPMI-8226 leukemia
NCI/ADR-RES ovarian = system: NCI/ADR-RES ovarian
OVCAR-5 ovarian = system: OVCAR-5 ovarian
HL-60(TB) leukemia = system: HL-60(TB) leukemia
TK-10 renal = system: TK-10 renal
HS 578T breast = system: HS 578T breast
786-0 renal = system: 786-0 renal
SN12C renal = system: SN12C renal
IGROV1 ovarian = system: IGROV1 ovarian
U251 CNS = system: U251 CNS
UO-31 renal = system: UO-31 renal
MDA-MB-231 breast = system: MDA-MB-231 breast
MDA-N = system: MDA-N
SK-OV-3 ovarian = system: SK-OV-3 ovarian
OVCAR-8 ovarian = system: OVCAR-8 ovarian
A549 NSCLC = system: A549 NSCLC
SK-MEL-5 melanoma = system: SK-MEL-5 melanoma
HCC-2998 colon = system: HCC-2998 colon
OVCAR-4 ovarian = system: OVCAR-4 ovarian
SR leukemia = system: SR leukemia
OVCAR-3 ovarian = system: OVCAR-3 ovarian
HT29 colon = system: HT29 colon
CCRF-CEM leukemia = system: CCRF-CEM leukemia
T-47D breast = system: T-47D breast
UACC-62 melanoma = system: UACC-62 melanoma
MALME-3M melanoma = system: MALME-3M melanoma
M14 melanoma = system: M14 melanoma
SF-295 CNS = system: SF-295 CNS
NCI-H226 lung = system: NCI-H226 lung
UACC-257 melanoma = system: UACC-257 melanoma
SF-268 CNS = system: SF-268 CNS
RXF 393 renal = system: RXF 393 renal
COLO 205 colon = system: COLO 205 colon
LOX IMVI melanoma = system: LOX IMVI melanoma
MDA-MB-435 = system: MDA-MB-435
MOLT-4 leukemia = system: MOLT-4 leukemia
MCF7 breast = system: MCF7 breast
PC-3 prostate = system: PC-3 prostate
NCI-H460 lung = system: NCI-H460 lung
HCT-15 colon = system: HCT-15 colon
SF-539 CNS = system: SF-539 CNS
SNB-75 CNS = system: SNB-75 CNS
KM12 colon = system: KM12 colon
SK-MEL-2 melanoma = system: SK-MEL-2 melanoma
CAKI-1 renal = system: CAKI-1 renal

Compound `Cc1cccc2c1C(=O)C1(Cc3ccccc3C1=O)C2` (configuration not stated) has a TGI (NCI-H23 lung) of over 100 µM, a TGI (DU-145 prostate) of over 100 µM and a TGI (SK-MEL-28 melanoma) of over 100 µM. The TGI (ACHN renal) was over 100 µM, the TGI (HCT-116 colon) was over 100 µM and the TGI (EKVX NSCLC) was over 100 µM. The TGI (SW-620 colon) was over 100 µM, the TGI (SNB-19 CNS) was over 100 µM and the TGI (HOP-62 NSCLC) was over 100 µM. It also gave a TGI (A498 renal) of over 100 µM, a TGI (HOP-92 NSCLC) of over 100 µM and a TGI (K-562 leukemia) of over 100 µM. The TGI (NCI-H522 lung) was over 100 µM, the TGI (RPMI-8226 leukemia) was over 100 µM and the TGI (NCI/ADR-RES ovarian) was over 100 µM. For the same compound, the TGI (OVCAR-5 ovarian) was over 100 µM, the TGI (HL-60(TB) leukemia) was over 100 µM and the TGI (TK-10 renal) was over 100 µM. The TGI (HS 578T breast) was over 100 µM, the TGI (786-0 renal) was over 100 µM and the TGI (SN12C renal) was over 100 µM. It also gave a TGI (IGROV1 ovarian) of over 100 µM, a TGI (U251 CNS) of over 100 µM and a TGI (UO-31 renal) of 96.2 µM. It also gave a TGI (MDA-MB-231 breast) of over 100 µM, a TGI (MDA-N) of over 100 µM and a TGI (SK-OV-3 ovarian) of over 100 µM. The TGI (OVCAR-8 ovarian) was over 100 µM, the TGI (A549 NSCLC) was over 100 µM and the TGI (SK-MEL-5 melanoma) was over 100 µM. For the same compound, the TGI (HCC-2998 colon) was over 100 µM, the TGI (OVCAR-4 ovarian) was over 100 µM and the TGI (SR leukemia) was over 100 µM. For the same compound, the TGI (OVCAR-3 ovarian) was over 100 µM, the TGI (HT29 colon) was over 100 µM and the TGI (CCRF-CEM leukemia) was over 100 µM. The TGI (T-47D breast) was over 100 µM, the TGI (UACC-62 melanoma) was over 100 µM and the TGI (MALME-3M melanoma) was over 100 µM. It also gave a TGI (M14 melanoma) of over 100 µM, a TGI (SF-295 CNS) of over 100 µM and a TGI (NCI-H226 lung) of over 100 µM. The TGI (UACC-257 melanoma) was over 100 µM, the TGI (SF-268 CNS) was over 100 µM and the TGI (RXF 393 renal) was over 100 µM. For the same compound, the TGI (COLO 205 colon) was over 100 µM, the TGI (LOX IMVI melanoma) was over 100 µM and the TGI (MDA-MB-435) was over 100 µM. The TGI (MOLT-4 leukemia) was over 100 µM, the TGI (MCF7 breast) was over 100 µM and the TGI (PC-3 prostate) was over 100 µM. For the same compound, the TGI (NCI-H460 lung) was over 100 µM, the TGI (HCT-15 colon) was over 100 µM and the TGI (SF-539 CNS) was over 100 µM. The TGI (SNB-75 CNS) was over 100 µM.
With `C=CCOc1ccc(C2c3c([nH][nH]c3=O)CC(O)(OCC)C2C(=O)OCC)cc1OC` (configuration not stated) the TGI (NCI-H23 lung) was over 100 µM, the TGI (DU-145 prostate) was over 100 µM and the TGI (SK-MEL-28 melanoma) was over 100 µM. It also gave a TGI (ACHN renal) of over 100 µM, a TGI (HCT-116 colon) of over 100 µM and a TGI (EKVX NSCLC) of over 100 µM. For the same compound, the TGI (SW-620 colon) was over 100 µM, the TGI (SNB-19 CNS) was over 100 µM and the TGI (KM12 colon) was over 100 µM. For the same compound, the TGI (SK-MEL-2 melanoma) was over 100 µM, the TGI (HOP-62 NSCLC) was over 100 µM and the TGI (A498 renal) was over 100 µM. For the same compound, the TGI (HOP-92 NSCLC) was over 100 µM, the TGI (NCI-H522 lung) was over 100 µM and the TGI (RPMI-8226 leukemia) was over 100 µM. For the same compound, the TGI (NCI/ADR-RES ovarian) was over 100 µM, the TGI (OVCAR-5 ovarian) was over 100 µM and the TGI (HL-60(TB) leukemia) was over 100 µM. The TGI (TK-10 renal) was over 100 µM, the TGI (HS 578T breast) was over 100 µM and the TGI (786-0 renal) was over 100 µM. The TGI (SN12C renal) was over 100 µM, the TGI (IGROV1 ovarian) was over 100 µM and the TGI (U251 CNS) was over 100 µM. For the same compound, the TGI (UO-31 renal) was over 100 µM, the TGI (MDA-MB-231 breast) was over 100 µM and the TGI (MDA-N) was over 100 µM. For the same compound, the TGI (OVCAR-8 ovarian) was over 100 µM, the TGI (A549 NSCLC) was over 100 µM and the TGI (SK-MEL-5 melanoma) was over 100 µM. For the same compound, the TGI (HCC-2998 colon) was over 100 µM, the TGI (OVCAR-4 ovarian) was over 100 µM and the TGI (OVCAR-3 ovarian) was over 100 µM. For the same compound, the TGI (HT29 colon) was over 100 µM, the TGI (CCRF-CEM leukemia) was over 100 µM and the TGI (T-47D breast) was over 100 µM. It also gave a TGI (MALME-3M melanoma) of over 100 µM, a TGI (M14 melanoma) of over 100 µM and a TGI (SF-295 CNS) of over 100 µM. It also gave a TGI (UACC-257 melanoma) of over 100 µM, a TGI (SF-268 CNS) of over 100 µM and a TGI (COLO 205 colon) of over 100 µM. For the same compound, the TGI (LOX IMVI melanoma) was over 100 µM, the TGI (MDA-MB-435) was over 100 µM and the TGI (MOLT-4 leukemia) was over 100 µM. The TGI (MCF7 breast) was over 100 µM, the TGI (PC-3 prostate) was over 100 µM and the TGI (NCI-H460 lung) was over 100 µM. It also gave a TGI (HCT-15 colon) of over 100 µM, a TGI (CAKI-1 renal) of over 100 µM and a TGI (SF-539 CNS) of over 100 µM. The TGI (SNB-75 CNS) was over 100 µM.
